Source: patent publication US11883537B2, “Sustained release solid dosage forms for modulating the colonic microbiome” (Axial Therapeutics, Inc., priority 2019, dated 2024)
Read-outs that look alike come from different tables or passages of the source.

Legend:
[1] = biological target: α-synuclein (Homo sapiens, UniProt P37840); assay: ThT assay, aggregation of α-synuclein; assay type: biochemical
Description: (§1) A compound that inhibits, or that may inhibit, amyloidogenesis is combined with a bacterial amyloid initiator (e.g., E. coli CsgA), or a host-derived amyloidogenic protein (e.g., α-synuclein) and an amyloid precursor in the presence of Thioflavin T (ThT). Separately, as a control, bacterial amyloid initiator, amyloid precursor, and Thioflavin T are combined in the absence of the suspected amyloidogenesis inhibitor. Thioflavin T fluorescence is monitored over time. […] The Tht assay was used with a cell-free assay to assess the effects of compounds on aggregation of α-synuclein of E. coli CsgA, and to assess the effects of compounds on aggregation of α-synuclein seeded by E. coli CsgA.

[2] = biological target: α-synuclein seeded by E. coli CsgA (Homo sapiens, UniProt P37840); assay type: biochemical; details: ThT fluorescence, cell-free
Description: as §1

[3] = system: αSyn amyloid formation; details: mice; cited from earlier work
[4] = biological target: E. coli CsgA (Escherichia coli, UniProt P28307); assay: ThT assay, aggregation of E. coli CsgA; assay type: biochemical; details: ThT fluorescence, cell-free
Description: A compound that inhibits, or that may inhibit, amyloidogenesis is combined with a bacterial amyloid initiator (e.g., E. coli CsgA), or a host-derived amyloidogenic protein (e.g., α-synuclein) and an amyloid precursor in the presence of Thioflavin T (ThT). Separately, as a control, bacterial amyloid initiator, amyloid precursor, and Thioflavin T are combined in the absence of the suspected amyloidogenesis inhibitor. Thioflavin T fluorescence is monitored over time. A reduction in the rate of increase in Thioflavin T fluorescence, and/or a reduction in the maximum level of Thioflavin T fluorescence in the sample containing the suspected inhibitor, relative to the control sample, confirms that the suspected amyloidogenesis inhibitor is in fact functioning to inhibit amyloid formation. The Tht assay was used with a cell-free assay to assess the effects of compounds on aggregation of α-synuclein of E. coli CsgA, and to assess the effects of compounds on aggregation of α-synuclein seeded by E. coli CsgA. For a detailed description of the ThT assay, see, e.g., International Publication No. WO/2018/213204, which is incorporated by reference herein in its entirety.

[5] = system: bacterial curli levels in the gastrointestinal tract; assay: Murine models, curli content in feces; assay type: in vivo; details: SPF mice or germ free mice mono-colonized with E. coli MC4100; oral
Description: The following two mouse models were used to evaluate the in vivo activity of test articles (i.e., sustained release solid dosage forms described herein).
Model 1 was performed in selected strains of specific pathogen free (SPF) mice (e.g. Swiss Webster) that carry curli producing bacteria as part of their native gastrointestinal microbiota.
Model 2 was performed in germ free mice that have no native microbiota. In these mice administration, by oral gavage, of a single strain of curli-producing bacteria (e.g. E. coli MC4100) led to stable bacterial colonization of their gastrointestinal tract. […]
To evaluate the ability of test articles to modify bacterial curli levels in the gastrointestinal tract mice, from either Model 1 or 2, were treated with compound typically administered once daily via oral gavage. […] Where appropriate, test articles were evaluated at multiple dose levels, or at greater or lower dosing frequency. […]
To enable the quantitative assessment of test article impact on gastrointestinal curli levels, fecal samples were collected from these treated mice. […]
Assessment of curli content in feces was achieved through one of four approaches: • 1. Quantitative measurement of messenger RNA (mRNA) levels for csgA using a specific qRT-PCR approach. • 2. Quantitative measurement of curli protein levels using fluorescent dyes that bind to amyloid proteins (e.g. ThT, Congo Red, FSB). • 3. […]

Sequence of E. coli CsgA (P28307 21-151): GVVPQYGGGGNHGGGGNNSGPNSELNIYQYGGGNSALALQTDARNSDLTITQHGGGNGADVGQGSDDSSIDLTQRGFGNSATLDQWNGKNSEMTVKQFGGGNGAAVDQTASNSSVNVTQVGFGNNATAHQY

Row | Structure (SMILES) | Inhibition of Aggregation αSyn ([1]; ThT fluorescence, cell-free) | Inhibition of Aggregation CsgA-seeded αSyn [2] | motor scores [3] | αSyn amyloid formation in vivo [3] | Inhibition of Aggregation CsgA [4] | in vivo activity on fecal curli content [5] | Inhibition of Aggregation αSyn [1]
1 | O=c1c(-c2ccc(O)cc2)coc2cc(O)cc(O)c12 [genistein] | ++ ((++) is between 30% to 60% inhibition) | – | – | – | – | – | –
2 | O=C(O[C@@H]1Cc2c(O)cc(O)cc2O[C@@H]1c1cc(O)c(O)c(O)c1)c1cc(O)c(O)c(O)c1 [EGCG, epigallocatechin gallate] | +++ ((+++) is greater than 60% inhibition) | +++ ((+++) is greater than 60% inhibition) | improved motor scores | inhibits or reduces αSyn amyloid formation in mice | ++ ((++) is between 30% to 60% inhibition) | reduce fecal levels of csgA mRNA, CsgA protein, and curli protein | –
3 | Oc1ccc(/C=C/c2cc(O)cc(O)c2)cc1 [resveratrol] | +++ ((+++) is greater than 60% inhibition) | – | – | – | +++ ((+++) is greater than 60% inhibition) | – | –
4 | O=C(CCc1ccc(O)cc1)c1c(O)cc(O)cc1O [phloretin] | ++ ((++) is between 30% to 60% inhibition) | + ((+) is between 10% to 30% inhibition) | – | – | + ((+) is between 10% to 30% inhibition) | – | –
5 | Cc1ccc(C(C)C)c(O)c1 [thymol] | − − ((− −) is less than −10% inhibition) | − ((−) is between −10% to 10% inhibition) | – | – | − ((−) is between −10% to 10% inhibition) | – | –
6 | O=C(/C=C/c1ccc(O)c(O)c1)O[C@H](Cc1ccc(O)c(O)c1)C(=O)O [rosmarinic acid] | +++ ((+++) is greater than 60% inhibition) | – | – | – | ++ ((++) is between 30% to 60% inhibition) | – | –
7 | O=c1c(O)c(-c2ccc(O)cc2O)oc2cc(O)cc(O)c12 [morin] | +++ ((+++) is greater than 60% inhibition) | +++ ((+++) is greater than 60% inhibition) | – | – | +++ ((+++) is greater than 60% inhibition) | – | –
8 | C=CCc1ccc(O)c(OC)c1 [eugenol] | − ((−) is between −10% to 10% inhibition) | ++ ((++) is between 30% to 60% inhibition) | – | – | − ((−) is between −10% to 10% inhibition) | – | –
9 | CCCCCCCCCCCCOC(=O)c1cc(O)c(O)c(O)c1 [lauryl gallate] | ++ ((++) is between 30% to 60% inhibition) | + ((+) is between 10% to 30% inhibition) | – | – | − ((−) is between −10% to 10% inhibition) | – | –
10 | COc1ccccc1O [guaiacol] | − ((−) is between −10% to 10% inhibition) | ++ ((++) is between 30% to 60% inhibition) | – | – | − ((−) is between −10% to 10% inhibition) | – | –
11 | C/C=C/c1ccc(O)c(OC)c1 [isoeugenol] | − ((−) is between −10% to 10% inhibition) | ++ ((++) is between 30% to 60% inhibition) | – | – | − ((−) is between −10% to 10% inhibition) | – | –
12 | Brc1cccc(-c2cc(-c3ccc4c(c3)OCO4)n[nH]2)c1 [Anle 138b] | – | – | – | – | − ((−) is between −10% to 10% inhibition) | – | –
13 | O=c1c(O)c(-c2ccc(O)c(O)c2)oc2cc(O)cc(O)c12 [quercetin] | +++ ((+++) is greater than 60% inhibition) | – | – | – | ++ ((++) is between 30% to 60% inhibition) | – | –
14 | Cc1ccc(C(C)C)cc1O [carvacrol] | − ((−) is between −10% to 10% inhibition) | − ((−) is between −10% to 10% inhibition) | – | – | − − ((− −) is less than −10% inhibition) | – | –
15 | O=c1cc(-c2ccc(O)cc2)oc2cc(O)cc(O)c12 [apigenin] | ++ ((++) is between 30% to 60% inhibition) | – | – | – | – | – | –
16 | C=CCc1ccc(OC)c(OC)c1 [4-allyl-1,2-dimethoxy-benzene, 4-allyl-1,2-dimethoxy-benzene] | – | ++ ((++) is between 30% to 60% inhibition) | – | – | − − ((− −) is less than −10% inhibition) | – | − ((−) is between −10% to 10% inhibition)
17 | O=C(O)c1cc(O)c(O)c(O)c1 [gallic acid] | +++ ((+++) is greater than 60% inhibition) | +++ ((+++) is greater than 60% inhibition) | – | – | +++ ((+++) is greater than 60% inhibition) | – | –
18 | COc1cc(O)ccc1O [methoxy- hydroquinone, methoxy-hydroquinone] | +++ ((+++) is greater than 60% inhibition) | +++ ((+++) is greater than 60% inhibition) | – | – | ++ ((++) is between 30% to 60% inhibition) | – | –
19 | CC(Cc1ccc(O)c(O)c1)C(C)Cc1ccc(O)c(O)c1 (centres unmarked) [NDGA] | ++ ((++) is between 30% to 60% inhibition) | ++ ((++) is between 30% to 60% inhibition) | – | – | + ((+) is between 10% to 30% inhibition) | – | –
20 | COc1cc(/C=C/C(=O)/C=C(O)/C=C/c2ccc(O)c(OC)c2)ccc1O [curcumin] | +++ ((+++) is greater than 60% inhibition) | +++ ((+++) is greater than 60% inhibition) | – | – | – | – | –
